Values of other authors, collected in US20240009433A1, “METHODS FOR CONTINUOUS ORAL DRUG DELIVERY” (SynAgile Corporation, priority 2020, published 2024).

Assays:
[1] = in vivo
[2] = in vivo; remark: listed apart in the source
[3] = in vivo; remark: listed apart in the source

crossing of the blood-brain barrier [1]	plasma half-life [2] [h]	SMILES	hepatotoxicity [3]
does not cross the blood-brain barrier	0.4 to 0.7	CCN(CC)C(=O)/C(C#N)=C/c1cc(O)c(O)c([N+](=O)[O-])c1 [Entacapone]	–
crosses the barrier	2 to 3	Cc1ccc(C(=O)c2cc(O)c(O)c([N+](=O)[O-])c2)cc1 [Tolcapone]	use is limited by its hepatotoxicity
